Measured values taken from patent publication US20260294910A1, “ORAL PHARMACEUTICAL COMPOSITIONS” (Assembly Biosciences, Inc., priority 2023, published 2026).
Read-outs that look alike come from different tables or passages of the source.

Columns and labels:
[1] = system: carbonic anhydrase I; assay: carbonic anhydrase inhibition, CA I; assay type: biochemical
Excerpt: Carbonic anhydrase inhibition can be measured using a carbonic anhydrase I assay as described in Katritzky et al. (J. Med. Chem. 1987, 30:2058) and a […] as described in Iyer et al. (J. Biomol. Screen 2006, 11:782).

[2] = system: carbonic anhydrase II; assay: carbonic anhydrase inhibition, CA II; assay type: biochemical
[3] = predicted human PK by allometric scaling; settings: allometric scaling from multiple species
[4] = Dog IV study with and without oral charcoal administration (Example 10); assay type: in vivo, male non-naïve Beagle dogs; settings: 0.10 mg/kg
Experimental: A 0.1 mg/mL solution of Compound 1 in 10% DMSO/10% Solutol HS15/80% Saline was prepared as follows: • 1) 4.63 mg Compound 1 was weighed into appropriately sized tube. • 2) 4.57 mL of DMSO was added into the tube. Vortexed for 2 minutes. • 3) 4.57 mL of Solutol HS15 was added into above tube. Vortexed for 2 minutes. • 4) 36.54 mL of saline was added. Vortex for 1 minute.
A 100 mg/mL suspension of Activated Charcoal in Saline was prepared as follows: • 1) 300 g Activated Charcoal was weighed into appropriately sized tube. • 2) 3000 mL of saline was added into the tube. • 3) Mixture was stirred for 10 minutes, and then sonicated for 10 minutes.
Two groups of Male non-naïve beagles were used for the dog PK study (n=2 per group). The prepared oral formulation was administered via oral administration with 25 gram dose of activated charcoal to Group 2 animals. Immediately after the PO administration, the prepared IV formulation was administered via 10 minutes IV infusion to both Group 1 and Group 2 animals with appropriate dosing volume to achieve the respective doses. Group 1 animals were fed before administration. Group 2 animals were fasted overnight before administration and were fed at 4 hours post oral administration.
At each time point, approximately 0.5 mL of whole blood was collected into K2EDTA tubes. […] Plasma samples were stored at approximately −80° C. until analyzed by LC-MS.

[5] = biorelevant non-sink dissolution experiment; assay type: physicochemical; settings: 37° C.
Experimental: The preliminary dissolution performance of the SD samples and bulk Compound 1 was tested in a biorelevant non-sink dissolution experiment. About 0.5 mg SD samples were dispersed into 6 mL SGF medium firstly and stirred magnetically with 250 rpm at 37° C. After 30 min, 5 mL cFaSSIF-V2 (2×) medium was added into the above medium and adjusted the pH to 6.5 with 100 μL NaHCO3 (80 g/L). At each time point of 15 and 30 min in SGF and 15, 30, 60, 120 min in FaSSIF, 0.5 mL suspension was taken out and centrifuged. The supernatants were analyzed by HPLC.

[6] = system: genital HSV; settings: human, oral, cited from earlier work
[7] = system: genital HSV-2; settings: human, oral, cited from earlier work
[8] = cited from earlier work
[9] = human, oral; cited from earlier work
[10] = system: recurrent genital herpes (HSV); settings: human, oral, 100, 200, 400 and 1200 mg vs placebo; cited from earlier work

Cc1nc(N2CCCN(c3ccc(-c4cc(F)ccc4F)cc3)C2=O)sc1S(N)(=O)=O [Compound 1, 2-(3-(2′,5′-difluoro-[1,1′-biphenyl]-4-yl)-2-oxotetrahydropyrimidin-1(2H)-yl)-4-methylthiazole-5-sulfonamide]
carbonic anhydrase I inhibition [1]: no or low levels of carbonic anhydrase inhibition
carbonic anhydrase II inhibition [2]: no or low levels of carbonic anhydrase inhibition
predicted human clearance [3]: 0.06 L/h
clearance without versus with oral charcoal [4]: slower
overall exposure without versus with oral charcoal [4]: higher
Concentration in FaSSIF at 45 min ([5]; FaSSIF (pH 6.5), 45 min): 0.14 µg/mL
Concentration in FaSSIF at 60 min ([5]; FaSSIF (pH 6.5), 60 min): 0.12 µg/mL
Concentration in FaSSIF at 90 min ([5]; FaSSIF (pH 6.5), 90 min): 0.14 µg/mL
Concentration in FaSSIF at 150 min ([5]; FaSSIF (pH 6.5), 150 min): 0.12 µg/mL
Concentration in SGF at 15 min ([5]; SGF (pH 1.7), 15 min): 0.10 µg/mL
Concentration in SGF at 30 min ([5]; SGF (pH 1.7), 30 min): 0.07 µg/mL

Cc1nc(N(C)C(=O)Cc2ccc(-c3ccccn3)cc2)sc1S(N)(=O)=O [pritelivir, N-Methyl-N-(4-methyl-5-sulfamoyl-1,3-thiazol-2-yl)-2-[4-(pyridin-2-yl)phenyl]acetamide]
break-through shedding at 75 mg daily ([6]; 75 mg daily): break-through shedding remained
antiviral effect ([6]; daily 75 mg vs weekly 400 mg): An oral daily dose of 75 mg had the greatest antiviral effect and this was found to be superior to the less frequently administered weekly dose of 400 mg
number of days with lesions ([6]; genital herpes): reduced the number of days with lesions
rate of genital HSV shedding ([6]; high doses, 28 days): reduced the rate of genital HSV shedding
genital swabs with HSV shedding ([7]; 100 mg daily after 400 mg loading dose, 28 days): 2.4%
free fraction of total plasma concentration [8]: 2-3%
protein binding ([8]; plasma): 97-98%

C[C@@H](c1ccccc1)N(CC(=O)Nc1ccc(-c2csc(N)n2)cc1)C(=O)c1ccncc1 [BILS-179 BS]
adverse events in early clinical trials [9]: suspended in early clinical trials due to adverse events

CC(C)[C@H](N)C(=O)OCCOCn1cnc2c(=O)[nH]c(N)nc21 [valacyclovir]
genital swabs with HSV shedding ([7]; 500 mg daily): 5.3%

Cc1cccc(C)c1N(CC(=O)Nc1ccc(-c2ncon2)cc1)C(=O)C1CCS(=O)(=O)CC1 [amenamevir]
time to lesion healing [10]: only significantly different between the very highest 1200 mg single dose group and the placebo-tested group
adverse events in early clinical trials [9]: suspended from early HSV clinical trials due to adverse events
